Source: ChEMBL document CHEMBL4680211, “Synthesis and structure-activity relationship study of water-soluble carbazole sulfonamide derivatives as new anticancer agents” (Eur J Med Chem, 2020)

Assays:
HepG2 [1] = assay: Antiproliferative activity against human HepG2 cells measured after 48 hrs by SRB assay; type: functional, cell-based; conditions: Homo sapiens, HepG2, 48 h
[2] = Toxicity in human HepG2 cells xenografted BALB/c nude mouse assessed as change in tumor weight at 50 to 100 mg/kg for 29 days; type: organism-based; conditions: in vivo, 696 h, dose 50-100 mg/kg, time 29 day
HepG2 [3] = assay: Antitumor activity against human HepG2 cells xenografted in BALB/c nude mouse assessed as reduction in tumor volume at 50 mg/kg administered for 29 days by caliper method relative to control; type: functional; design: scale not given: the % may be the effect or the level left; conditions: time 29 day
Bel-7402 = assay: Antiproliferative activity against human Bel-7402 cells measured after 48 hrs by SRB assay; type: functional, cell-based; conditions: Homo sapiens, Bel-7402, 48 h
[4] = Acute toxicity in po dosed Kunming mouse measured for 7 days; type: organism-based; conditions: in vivo, time 7 day
MCF7 = assay: Antiproliferative activity against human MCF7 cells measured after 48 hrs by SRB assay; type: functional, cell-based; conditions: Homo sapiens, MCF7, 48 h
HepG2 [5] = assay: Antitumor activity against human HepG2 cells xenografted in BALB/c nude mouse assessed as reduction in tumor volume at 100 mg/kg administered for 29 days by caliper method relative to control; type: functional; design: scale not given: the % may be the effect or the level left; conditions: time 29 day
[6] = MRT (0 to last) in Sprague-Dawley rat assessed as N-(2,6-dimethoxypyridin-3-yl)-7-hydroxy-9-methyl-9H-carbazole-3-sulfonamide level at 2.5 mg/kg, iv; type: ADME, organism-based; conditions: in vivo
[7] = Cmax in Sprague-Dawley rat assessed as N-(2,6-dimethoxypyridin-3-yl)-7-hydroxy-9-methyl-9H-carbazole-3-sulfonamide level at 2.5 mg/kg, iv; type: ADME, organism-based; design: route intravenous, dose 2.5 mg/kg; conditions: in vivo
[8] = AUC (0 to last) in Sprague-Dawley rat assessed as N-(2,6-dimethoxypyridin-3-yl)-7-hydroxy-9-methyl-9H-carbazole-3-sulfonamide level at 2.5 mg/kg, iv; type: ADME, organism-based; design: route intravenous, time 0 - last, dose 2.5 mg/kg; conditions: in vivo
[9] = Terminal half life in Sprague-Dawley rat assessed as N-(2,6-dimethoxypyridin-3-yl)-7-hydroxy-9-methyl-9H-carbazole-3-sulfonamide level at 2.5 mg/kg, iv; type: ADME, organism-based; conditions: in vivo
[10] = Tmax in Sprague-Dawley rat assessed as N-(2,6-dimethoxypyridin-3-yl)-7-hydroxy-9-methyl-9H-carbazole-3-sulfonamide level at 2.5 mg/kg, iv; type: ADME, organism-based; conditions: in vivo
MDA-MB-231 = assay: Antitumor activity against human MDA-MB-231 cells xenografted in BALB/c nude mouse assessed as reduction in tumor burden at 60 mg/kg, ip biw for 14 to 29 days relative to control; type: functional; design: scale not given: the % may be the effect or the level left; conditions: time 14-29 day
HepG2 [11] = assay: Antitumor activity against human HepG2 cells xenografted in BALB/c nude mouse assessed as tumor growth inhibition at 10 mg/kg, iv administered once per week for 29 days by caliper method relative to control; type: functional; design: scale not given: the % may be the effect or the level left; conditions: time 29 day
[12] = Toxicity in GFP-labelled human HepG2 cells xenografted BALB/c nude mouse assessed as change in animal weight at 10 mg/kg, iv administered once per week for 29 days; type: organism-based; conditions: in vivo, 696 h, time 29 day
HepG2 [13] = assay: Antitumor activity against GFP-labelled human HepG2 cells xenografted in BALB/c nude mouse assessed as tumor growth inhibition at 10 mg/kg, iv administered once per week for 29 days relative to control; type: functional; conditions: 696 h, time 29 day, read-out: TGI
[14] = Toxicity in human MDA-MB-231 cells xenografted BALB/c nude mouse assessed as effect on body weight at 60 mg/kg, ip biw for 14 to 29 days measured every two days during compound dosing; type: organism-based; conditions: in vivo, time 14-29 day
[15] = Toxicity in GFP-labelled human HepG2 cells xenografted BALB/c nude mouse assessed as change in animal weight at 10 mg/kg, iv qod for 29 days; type: organism-based; conditions: in vivo, 696 h, time 29 day
HepG2 [16] = assay: Antitumor activity against human HepG2 cells xenografted in BALB/c nude mouse assessed as tumor volume at 10 mg/kg, iv qod for 14 to 29 days measured on day 29 (reference value: 2,838.93 +/- 737.40); type: functional; conditions: time 14-29 day
[17] = Acute toxicity in Kunming mouse assessed as survival at 80 mg/kg, iv measured for 7 days relative to control; type: organism-based; conditions: in vivo, time 7 day
HepG2 [18] = assay: Antitumor activity against human HepG2 cells xenografted in BALB/c nude mouse assessed as tumor growth inhibition at 5 mg/kg, iv qod for 14 to 29 days relative to control; type: functional; conditions: time 14-29 day, read-out: TGI
[19] = Acute toxicity in Kunming mouse assessed as survival at 60 mg/kg, iv measured for 7 days relative to control; type: organism-based; conditions: in vivo, time 7 day
HepG2 [20] = assay: Antitumor activity against GFP-labelled human HepG2 cells xenografted in BALB/c nude mouse assessed as tumor growth inhibition at 10 mg/kg, iv qod for 29 days relative to control; type: functional; conditions: 696 h, time 29 day, read-out: TGI
[21] = Acute toxicity in Kunming mouse assessed as survival at 100 mg/kg, iv measured for 7 days relative to control; type: organism-based; conditions: in vivo, time 7 day
[22] = Acute toxicity in iv dosed Kunming mouse measured for 7 days; type: organism-based; conditions: in vivo, time 7 day
HepG2 [23] = assay: Antitumor activity against human HepG2 cells xenografted in BALB/c nude mouse assessed as tumor volume at 10 mg/kg, iv qod for 14 to 29 days measured on day 1 (reference value: 154.04 +/- 3120); type: functional; conditions: time 14-29 day
[24] = Acute toxicity in Kunming mouse assessed as survival at 40 mg/kg, iv measured for 7 days relative to control; type: organism-based; conditions: in vivo, time 7 day
HepG2 [25] = assay: Antitumor activity against human HepG2 cells xenografted in BALB/c nude mouse assessed as tumor growth inhibition at 10 mg/kg, iv qod for 14 to 29 days relative to control; type: functional; conditions: time 14-29 day, read-out: TGI
[26] = Toxicity in human HepG2 cells xenografted BALB/c nude mouse assessed as change in tumor weight at 10 mg/kg, iv qod for 14 to 29 days (reference value: 4.52 g); type: organism-based; conditions: in vivo, time 14-29 day
HepG2 [27] = assay: Antitumor activity against human HepG2 cells xenografted in BALB/c nude mouse assessed as tumor growth inhibition at 25 mg/kg, ip qod for 29 days by caliper method relative to control; type: functional; conditions: 696 h, time 29 day, read-out: TGI
[28] = AUC (0 to last) in Sprague-Dawley rat at 2.5 mg/kg, iv; type: ADME, organism-based; design: time 0 - last, route intravenous, dose 2.5 mg/kg; conditions: in vivo
[29] = Volume of distribution at steady state in Sprague-Dawley rat at 2.5 mg/kg, iv; type: ADME, organism-based; conditions: in vivo, read-out: Vdss
[30] = Acute toxicity in ip dosed Kunming mouse measured for 7 days; type: organism-based; conditions: in vivo, time 7 day
[31] = Elimination half life in Sprague-Dawley rat at 2.5 mg/kg, iv; type: ADME, organism-based; conditions: in vivo, read-out: beta t1/2 (converted)
[32] = MRT (0 to last) in Sprague-Dawley rat at 2.5 mg/kg, iv; type: ADME, organism-based; conditions: in vivo

With `COc1ccc(N(CCOP(=O)([O-])[O-])S(=O)(=O)c2ccc3c(c2)c2ccccc2n3C)c(OC)n1.[Na+].[Na+]` the IC50 (HepG2 [1]) was 1120 nM, the Activity [2] was “Non-Toxic” and the Activity (HepG2 [3]) was 54.5%. It also gave an IC50 (Bel-7402) of 1970 nM, an LD50 at 168 h [4] of 273 mg/kg and an IC50 (MCF7) of 1080 nM. It also gave an Activity (HepG2 [5]) of 70.1%.

Work on `COc1ccc(NS(=O)(=O)c2ccc3c(c2)c2ccc(O)cc2n3C)c(OC)n1` yielded an MRTlast [6] of 76.2 min, an IC50 (HepG2 [1]) of 12 nM and a Cmax [7] of 22333 ng/mL. It also gave an IC50 (Bel-7402) of 56 nM, an IC50 (MCF7) of 14 nM and an AUClast [8] of 15295 ng·h/mL. The “beta t1/2” value [9] was 108 min and the Tmax [10] was 5 min.

For `CC(=O)O[C@H]1C(=O)[C@@]2(C)[C@H]([C@H](OC(=O)c3ccccc3)[C@]3(O)C[C@H](OC(=O)[C@H](O)[C@@H](NC(=O)c4ccccc4)c4ccccc4)C(C)=C1C3(C)C)[C@]1(OC(C)=O)CO[C@@H]1C[C@@H]2O` [PACLITAXEL], the Activity (MDA-MB-231) was 36%, the Activity (HepG2 [11]) was 59.6% and the Activity [12] was “Non-Toxic”. The inhibition in vivo at 10 mg/kg (HepG2 [13]) was 99.4% and the Activity [14] was “Non-Toxic”.

With `COc1ccc(N(CCN2CCN(C)CC2)S(=O)(=O)c2ccc3c(c2)c2ccccc2n3C)c(OC)n1` the Activity [15] was “Non-Toxic”, the Activity (HepG2 [16]) was 914.19 mm3 and the IC50 (HepG2 [1]) was 4130 nM. The survival at 168 h [17] was 83.3%, the inhibition in vivo at 5 mg/kg (HepG2 [18]) was 33.3% and the survival at 168 h [19] was 100%. It also gave an inhibition in vivo at 10 mg/kg (HepG2 [20]) of 60.2%, a survival at 168 h [21] of 16.7% and an LD50 at 168 h [22] of 89.5 mg/kg. For the same molecule, the Activity (HepG2 [23]) was 92.29 mm3, the survival at 168 h [24] was 100% and the IC50 (Bel-7402) was 6060 nM. It also gave an inhibition in vivo at 10 mg/kg (HepG2 [25]) of 48.3%, an Activity [26] of 1.44 g and an IC50 (MCF7) of 15000 nM.

In the case of `COc1ccc(NS(=O)(=O)c2ccc3c(c2)c2ccc(OP(=O)([O-])[O-])cc2n3C)c(OC)n1.[Na+].[Na+]`, the inhibition in vivo at 25 mg/kg (HepG2 [27]) is reported as 71.7%, the IC50 (HepG2 [1]) is reported as 19 nM and the AUClast [28] is reported as 18449 ng·h/mL. The Vd [29] was 0.24 L/kg, the LD50 at 168 h [30] was 273 mg/kg and the IC50 (Bel-7402) was 60 nM. For the same molecule, the IC50 (MCF7) was 16 nM, the half-life [31] was 43.2 min and the MRT last [32] was 10.2 min.
